Test results: ChEMBL document CHEMBL5465560, “Selectivity Literature for EUbOPEN Chemogenomic Library” (2024)

Key:
[1] = molecular target: T1, Phosphorylase b kinase gamma catalytic chain, liver/testis isoform (Homo sapiens) (UniProt P15735); experiment: Selectivity interaction (Upstate Kinase Profiler service (Millipore)) EUB0000056c PHKG2; conditions: at 1 µM
T1 sequence (whole entry): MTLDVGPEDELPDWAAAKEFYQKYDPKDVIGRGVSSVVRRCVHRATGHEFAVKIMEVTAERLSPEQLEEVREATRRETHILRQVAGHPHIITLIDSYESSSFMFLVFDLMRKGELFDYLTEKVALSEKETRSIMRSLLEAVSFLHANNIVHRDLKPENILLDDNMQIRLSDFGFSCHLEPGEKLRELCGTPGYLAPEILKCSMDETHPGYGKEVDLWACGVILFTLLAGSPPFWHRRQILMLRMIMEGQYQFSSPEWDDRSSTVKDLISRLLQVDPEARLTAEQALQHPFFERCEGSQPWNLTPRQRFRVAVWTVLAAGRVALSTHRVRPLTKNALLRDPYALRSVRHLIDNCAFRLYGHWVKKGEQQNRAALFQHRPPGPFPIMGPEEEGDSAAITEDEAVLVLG

[2] = molecular target: Serine/threonine-protein kinase PAK 2 (Homo sapiens) (UniProt Q13177); experiment: Selectivity interaction (Upstate Kinase Profiler service (Millipore)) EUB0000056c PAK2; conditions: at 1 µM
[3] = molecular target: Cannabinoid receptor 2 (Homo sapiens) (UniProt P34972); experiment: Selectivity interaction (Panel of kinases, GPCRs, ion channels and transporters (enzymatic assay)) EUB0000266bCl CNR2
[4] = molecular target: MAP kinase-interacting serine/threonine-protein kinase 2 (Homo sapiens, UniProt Q9HBH9); experiment: Selectivity interaction (KinomeScan (DiscoverX)) EUB0000666a MKNK2; conditions: at 10 µM
[5] = molecular target: T2, Homeodomain-interacting protein kinase 4 (Homo sapiens) (UniProt Q8NE63); experiment: Selectivity interaction (KinomeScan (DiscoverX)) EUB0000666a HIPK4; conditions: at 10 µM
T2 sequence (whole entry): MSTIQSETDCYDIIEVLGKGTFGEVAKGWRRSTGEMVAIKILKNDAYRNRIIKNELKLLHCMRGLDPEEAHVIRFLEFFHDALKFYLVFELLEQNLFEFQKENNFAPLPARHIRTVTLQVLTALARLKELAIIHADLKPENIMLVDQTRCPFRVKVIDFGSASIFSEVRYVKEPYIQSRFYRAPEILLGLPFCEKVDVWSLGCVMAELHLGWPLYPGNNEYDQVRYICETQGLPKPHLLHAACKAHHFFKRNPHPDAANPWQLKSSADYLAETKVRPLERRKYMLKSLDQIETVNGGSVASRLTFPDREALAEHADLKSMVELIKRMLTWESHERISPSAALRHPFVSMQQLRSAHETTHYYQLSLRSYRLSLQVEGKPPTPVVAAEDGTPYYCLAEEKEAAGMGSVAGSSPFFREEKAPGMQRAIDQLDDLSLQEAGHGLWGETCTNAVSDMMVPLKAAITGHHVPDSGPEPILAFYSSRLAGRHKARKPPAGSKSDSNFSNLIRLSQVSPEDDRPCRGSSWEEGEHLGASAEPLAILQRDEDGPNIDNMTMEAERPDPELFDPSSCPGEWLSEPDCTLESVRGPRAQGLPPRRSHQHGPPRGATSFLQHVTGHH

[6] = molecular target: Dual specificity protein kinase CLK1 (Homo sapiens, UniProt P49759); experiment: Selectivity interaction (Kinase panel (DSF assay)) EUB0001489b CLK1
[7] = molecular target: G protein-coupled receptor kinase 4 (Homo sapiens) (UniProt P32298); conditions: at 10 µM
[8] = molecular target: Calcium/calmodulin-dependent protein kinase type 1G (Homo sapiens) (UniProt Q96NX5); experiment: Selectivity interaction (Kinase panel (Z-LYTE Assay)) EUB0001632a CAMK1G; conditions: at 10 µM
[9] = molecular target: Mitogen-activated protein kinase 10 (Homo sapiens, UniProt P53779); experiment: Selectivity interaction (ActivX KiNativ screen (kinase selectivity in THP-1 cell lysates)) EUB0000639a MAPK10; type: subcellular; conditions: lysate
[10] = molecular target: Tyrosine-protein kinase ABL2 (Homo sapiens, UniProt P42684); experiment: Selectivity interaction (KinomeScan (DiscoverX)) EUB0000607a ABL2; conditions: at 10 µM
[11] = molecular target: T3, Serine/threonine-protein kinase Nek2 (Homo sapiens) (UniProt P51955); experiment: Selectivity interaction (KinomeScan (DiscoverX)) EUB0000695a NEK2; conditions: at 100 nM
T3 sequence (whole entry): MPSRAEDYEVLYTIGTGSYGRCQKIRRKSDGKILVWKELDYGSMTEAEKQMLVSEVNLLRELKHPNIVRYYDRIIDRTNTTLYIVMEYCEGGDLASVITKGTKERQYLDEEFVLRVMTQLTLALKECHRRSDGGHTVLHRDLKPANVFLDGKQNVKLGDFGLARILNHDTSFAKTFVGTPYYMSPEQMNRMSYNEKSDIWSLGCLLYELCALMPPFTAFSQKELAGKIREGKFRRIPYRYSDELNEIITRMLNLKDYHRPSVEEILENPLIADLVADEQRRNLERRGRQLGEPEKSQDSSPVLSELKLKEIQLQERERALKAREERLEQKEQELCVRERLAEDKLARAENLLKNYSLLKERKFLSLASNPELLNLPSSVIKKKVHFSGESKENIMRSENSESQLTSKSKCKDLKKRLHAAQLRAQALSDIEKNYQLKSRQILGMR

[12] = molecular target: Serine/threonine-protein kinase N1 (Homo sapiens, UniProt Q16512); experiment: Selectivity interaction (KinomeScan (DiscoverX)) EUB0000045b PKN1
[13] = molecular target: T4, Tyrosine-protein kinase TXK (Homo sapiens) (UniProt P42681); experiment: Selectivity interaction (Ambit KINOMEscan and KiNATiv profiling in Jurkat cells) EUB0000090b TXK; type: cell-based; conditions: at 1 µM
T4 sequence (whole entry): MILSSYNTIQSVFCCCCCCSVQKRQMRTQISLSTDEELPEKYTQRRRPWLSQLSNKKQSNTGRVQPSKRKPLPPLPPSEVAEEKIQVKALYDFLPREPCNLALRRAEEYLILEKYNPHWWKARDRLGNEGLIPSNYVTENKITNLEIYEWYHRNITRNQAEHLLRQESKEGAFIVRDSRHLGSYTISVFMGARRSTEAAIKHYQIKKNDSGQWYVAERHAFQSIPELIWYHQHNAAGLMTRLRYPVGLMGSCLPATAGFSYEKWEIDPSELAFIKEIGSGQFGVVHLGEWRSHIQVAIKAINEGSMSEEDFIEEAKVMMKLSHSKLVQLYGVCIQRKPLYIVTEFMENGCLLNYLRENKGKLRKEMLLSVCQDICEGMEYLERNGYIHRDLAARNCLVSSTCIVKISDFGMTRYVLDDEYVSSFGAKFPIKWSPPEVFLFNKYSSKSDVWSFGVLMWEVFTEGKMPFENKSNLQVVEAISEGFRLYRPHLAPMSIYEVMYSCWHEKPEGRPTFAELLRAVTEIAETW

Mitogen-activated protein kinase 10, sequence (P53779 whole entry): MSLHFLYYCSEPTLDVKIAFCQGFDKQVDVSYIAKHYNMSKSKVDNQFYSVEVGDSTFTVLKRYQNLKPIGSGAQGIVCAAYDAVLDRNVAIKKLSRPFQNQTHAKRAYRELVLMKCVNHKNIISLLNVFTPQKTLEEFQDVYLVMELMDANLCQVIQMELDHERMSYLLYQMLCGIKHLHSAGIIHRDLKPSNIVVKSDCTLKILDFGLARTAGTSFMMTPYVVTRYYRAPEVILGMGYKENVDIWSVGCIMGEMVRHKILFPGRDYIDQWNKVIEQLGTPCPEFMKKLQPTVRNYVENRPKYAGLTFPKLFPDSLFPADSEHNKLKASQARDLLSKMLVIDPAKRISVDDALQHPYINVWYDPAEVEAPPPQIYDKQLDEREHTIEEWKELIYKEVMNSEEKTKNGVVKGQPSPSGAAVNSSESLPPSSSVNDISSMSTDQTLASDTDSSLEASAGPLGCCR
Serine/threonine-protein kinase N1, sequence (Q16512 2-942 limits assumed): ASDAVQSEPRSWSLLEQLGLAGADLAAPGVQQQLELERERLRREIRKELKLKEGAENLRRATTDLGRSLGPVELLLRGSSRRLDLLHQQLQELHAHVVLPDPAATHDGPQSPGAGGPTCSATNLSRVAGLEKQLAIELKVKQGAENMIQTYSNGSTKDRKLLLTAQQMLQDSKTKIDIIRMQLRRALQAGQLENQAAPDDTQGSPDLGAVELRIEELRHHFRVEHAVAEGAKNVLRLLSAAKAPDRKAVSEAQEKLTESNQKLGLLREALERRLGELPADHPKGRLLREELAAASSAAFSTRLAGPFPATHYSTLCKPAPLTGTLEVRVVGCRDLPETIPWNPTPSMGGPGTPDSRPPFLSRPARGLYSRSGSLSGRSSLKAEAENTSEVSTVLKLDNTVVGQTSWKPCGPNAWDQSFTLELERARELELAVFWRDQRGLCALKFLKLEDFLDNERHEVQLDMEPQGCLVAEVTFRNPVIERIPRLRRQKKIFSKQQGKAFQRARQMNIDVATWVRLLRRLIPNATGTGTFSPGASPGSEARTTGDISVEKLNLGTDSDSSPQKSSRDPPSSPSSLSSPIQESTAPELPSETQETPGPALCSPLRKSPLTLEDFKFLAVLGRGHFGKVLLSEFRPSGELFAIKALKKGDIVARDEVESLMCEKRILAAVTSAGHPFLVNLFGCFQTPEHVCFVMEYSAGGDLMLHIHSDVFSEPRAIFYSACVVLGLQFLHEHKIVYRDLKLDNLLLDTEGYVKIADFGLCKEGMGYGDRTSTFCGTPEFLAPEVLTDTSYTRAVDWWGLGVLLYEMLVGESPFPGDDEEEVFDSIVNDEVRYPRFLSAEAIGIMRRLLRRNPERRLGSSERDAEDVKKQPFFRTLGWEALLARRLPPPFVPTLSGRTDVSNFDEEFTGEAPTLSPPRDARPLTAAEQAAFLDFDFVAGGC
G protein-coupled receptor kinase 4 (Homo sapiens), sequence (P32298 whole entry, looked up): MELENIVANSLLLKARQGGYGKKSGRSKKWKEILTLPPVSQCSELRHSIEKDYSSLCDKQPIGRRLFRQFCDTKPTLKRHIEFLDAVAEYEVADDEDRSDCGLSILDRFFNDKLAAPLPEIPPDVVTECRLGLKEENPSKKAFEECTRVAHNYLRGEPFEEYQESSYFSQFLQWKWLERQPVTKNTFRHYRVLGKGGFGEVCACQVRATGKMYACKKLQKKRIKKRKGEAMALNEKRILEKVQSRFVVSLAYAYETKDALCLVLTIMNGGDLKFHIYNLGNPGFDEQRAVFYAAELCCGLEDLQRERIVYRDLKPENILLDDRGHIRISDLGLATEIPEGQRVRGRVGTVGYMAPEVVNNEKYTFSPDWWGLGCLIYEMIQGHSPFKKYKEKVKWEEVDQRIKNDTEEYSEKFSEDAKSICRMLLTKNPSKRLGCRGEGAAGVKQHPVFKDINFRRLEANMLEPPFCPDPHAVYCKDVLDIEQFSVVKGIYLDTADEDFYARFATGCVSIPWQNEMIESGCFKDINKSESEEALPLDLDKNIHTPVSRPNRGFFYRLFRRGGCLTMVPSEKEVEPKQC
Cannabinoid receptor 2 (Homo sapiens), sequence (P34972 whole entry): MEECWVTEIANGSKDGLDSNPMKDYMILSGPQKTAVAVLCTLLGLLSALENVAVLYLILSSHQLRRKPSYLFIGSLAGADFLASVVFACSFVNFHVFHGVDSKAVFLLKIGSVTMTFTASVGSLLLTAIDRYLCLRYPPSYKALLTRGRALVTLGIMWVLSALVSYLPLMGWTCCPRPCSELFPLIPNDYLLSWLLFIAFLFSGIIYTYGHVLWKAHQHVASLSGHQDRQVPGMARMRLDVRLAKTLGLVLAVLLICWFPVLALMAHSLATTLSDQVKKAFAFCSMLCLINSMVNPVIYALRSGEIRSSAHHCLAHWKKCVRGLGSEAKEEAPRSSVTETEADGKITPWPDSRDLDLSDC
Dual specificity protein kinase CLK1, sequence (P49759 whole entry, looked up): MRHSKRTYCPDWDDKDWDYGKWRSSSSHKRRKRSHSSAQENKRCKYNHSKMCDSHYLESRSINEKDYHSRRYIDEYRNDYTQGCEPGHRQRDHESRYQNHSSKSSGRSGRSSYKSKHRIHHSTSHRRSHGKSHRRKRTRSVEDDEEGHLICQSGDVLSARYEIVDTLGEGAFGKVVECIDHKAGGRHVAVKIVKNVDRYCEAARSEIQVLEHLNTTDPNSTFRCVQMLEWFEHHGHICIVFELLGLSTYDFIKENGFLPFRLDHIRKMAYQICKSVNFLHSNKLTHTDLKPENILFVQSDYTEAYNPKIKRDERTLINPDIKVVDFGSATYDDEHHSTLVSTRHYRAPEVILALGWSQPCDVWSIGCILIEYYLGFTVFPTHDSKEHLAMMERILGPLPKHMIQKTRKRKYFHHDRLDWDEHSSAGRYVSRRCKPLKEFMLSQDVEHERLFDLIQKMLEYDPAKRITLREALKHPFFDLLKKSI
Tyrosine-protein kinase ABL2, sequence (P42684 whole entry): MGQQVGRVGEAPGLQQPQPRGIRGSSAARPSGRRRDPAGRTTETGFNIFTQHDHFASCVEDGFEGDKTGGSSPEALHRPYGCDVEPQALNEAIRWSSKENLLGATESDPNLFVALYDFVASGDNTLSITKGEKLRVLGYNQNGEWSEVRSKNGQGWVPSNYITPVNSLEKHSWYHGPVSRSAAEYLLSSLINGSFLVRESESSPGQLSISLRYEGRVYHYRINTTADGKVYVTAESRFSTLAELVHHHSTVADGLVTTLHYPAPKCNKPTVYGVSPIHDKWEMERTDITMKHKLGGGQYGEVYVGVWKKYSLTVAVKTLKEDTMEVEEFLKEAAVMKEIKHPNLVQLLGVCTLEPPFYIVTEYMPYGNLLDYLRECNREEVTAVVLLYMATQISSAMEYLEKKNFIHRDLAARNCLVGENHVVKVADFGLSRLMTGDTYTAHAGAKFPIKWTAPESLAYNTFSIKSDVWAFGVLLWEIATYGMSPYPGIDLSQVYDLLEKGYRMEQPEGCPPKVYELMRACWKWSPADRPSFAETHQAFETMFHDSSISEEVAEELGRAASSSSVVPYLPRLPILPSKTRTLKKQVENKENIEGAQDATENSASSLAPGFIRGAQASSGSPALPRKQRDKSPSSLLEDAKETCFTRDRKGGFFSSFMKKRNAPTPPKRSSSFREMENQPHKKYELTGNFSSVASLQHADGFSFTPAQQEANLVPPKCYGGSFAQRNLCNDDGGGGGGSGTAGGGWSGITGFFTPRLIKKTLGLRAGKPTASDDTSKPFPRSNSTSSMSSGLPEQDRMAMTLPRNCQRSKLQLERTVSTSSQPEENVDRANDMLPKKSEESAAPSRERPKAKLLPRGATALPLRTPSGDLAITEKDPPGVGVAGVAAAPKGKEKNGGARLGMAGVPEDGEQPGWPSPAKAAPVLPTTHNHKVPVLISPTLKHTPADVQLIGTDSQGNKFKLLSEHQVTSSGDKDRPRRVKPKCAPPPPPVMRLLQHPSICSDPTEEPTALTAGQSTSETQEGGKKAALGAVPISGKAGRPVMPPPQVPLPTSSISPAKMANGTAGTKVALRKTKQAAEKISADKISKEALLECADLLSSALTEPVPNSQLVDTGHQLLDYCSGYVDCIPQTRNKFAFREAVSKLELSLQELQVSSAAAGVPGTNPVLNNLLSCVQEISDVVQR
Calcium/calmodulin-dependent protein kinase type 1G (Homo sapiens), sequence (Q96NX5 whole entry): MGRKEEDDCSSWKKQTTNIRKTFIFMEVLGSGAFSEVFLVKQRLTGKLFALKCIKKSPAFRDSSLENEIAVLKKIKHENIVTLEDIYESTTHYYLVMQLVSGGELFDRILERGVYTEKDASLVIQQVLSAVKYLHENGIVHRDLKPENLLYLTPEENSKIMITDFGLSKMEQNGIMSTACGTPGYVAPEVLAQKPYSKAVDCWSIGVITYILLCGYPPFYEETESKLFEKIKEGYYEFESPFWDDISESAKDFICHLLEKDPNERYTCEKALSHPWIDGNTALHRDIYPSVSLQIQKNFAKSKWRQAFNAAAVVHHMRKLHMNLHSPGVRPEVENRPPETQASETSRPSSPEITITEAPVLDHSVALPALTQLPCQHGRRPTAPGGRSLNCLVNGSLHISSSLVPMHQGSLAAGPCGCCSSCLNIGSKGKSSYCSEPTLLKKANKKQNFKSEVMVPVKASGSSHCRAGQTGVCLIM
Serine/threonine-protein kinase PAK 2 (Homo sapiens), sequence (Q13177 whole entry): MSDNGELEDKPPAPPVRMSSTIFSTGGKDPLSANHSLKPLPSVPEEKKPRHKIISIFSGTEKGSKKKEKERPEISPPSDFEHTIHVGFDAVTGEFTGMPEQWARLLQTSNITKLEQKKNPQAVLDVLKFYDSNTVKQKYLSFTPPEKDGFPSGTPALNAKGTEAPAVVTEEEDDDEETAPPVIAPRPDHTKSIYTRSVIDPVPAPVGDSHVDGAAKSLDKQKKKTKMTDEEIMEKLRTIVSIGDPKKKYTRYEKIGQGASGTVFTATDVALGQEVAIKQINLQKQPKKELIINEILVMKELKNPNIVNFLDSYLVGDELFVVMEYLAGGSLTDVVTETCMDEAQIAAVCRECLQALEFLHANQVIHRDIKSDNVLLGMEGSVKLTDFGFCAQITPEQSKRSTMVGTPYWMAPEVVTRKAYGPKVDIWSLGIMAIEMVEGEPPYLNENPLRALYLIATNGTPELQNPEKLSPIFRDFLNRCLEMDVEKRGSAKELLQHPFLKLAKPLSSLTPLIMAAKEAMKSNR

SMILES: Cc1ccc(-c2ccc3c(ccc4sc5c(c43)NC[C@@H](C)NC5=O)n2)cn1
- % of inhibition [1]: 58%
- % of inhibition [2]: 37%

SMILES: CCn1c(-c2nc3cc(C(=O)N4CCCC(N)C4)ccc3n2C)cc2ccccc21 (stereo not drawn)
- pXC50 [3]: < 4 M

SMILES: O=C(NOC[C@H](O)CO)c1ccc(F)c(F)c1Nc1ccc(I)cc1F
- % of control [4]: 100%
- % of control [5]: 100%

SMILES: CN1CCN(C(=O)c2ccc3cc2OCCOCCNc2ccn4ncc-3c4n2)CC1
- dTM [6]: 2.9 K

SMILES: Cc1cc([C@@H](C)Nc2ccccc2C(=O)O)c2nc(N3CCOCC3)cc(=O)n2c1 [AZD-6482]
- % of control [7]: 90%

SMILES: Cn1cc(-n2cnc3c(NCc4nc5cc(Cl)c(Cl)cc5[nH]4)nc(N4CCOCC4)nc32)cn1
- % of control [8]: -0.991%

SMILES: CC[C@@H]1[C@H](F)C(=O)N[C@@H]1COc1nccc2cc(C(N)=O)c(OC)cc12 [ZIMLOVISERTIB]
- % of inhibition ([9]; at 0.01 µM): 13.3%
- % of inhibition ([9]; at 0.04 µM): -1.4%
- % of inhibition ([9]; at 0.2 µM): 1.6%
- % of inhibition ([9]; at 1 µM): 27.7%
- % of inhibition ([9]; at 5 µM): 57.5%

SMILES: CNC(=O)Nc1ccc(-c2nc(N3CC4CCC(C3)O4)c3cnn(C4CCC5(CC4)OCCO5)c3n2)cc1
- % of control [10]: 84%

SMILES: Cc1cc(F)c(C(=O)Nc2cccc(-c3nncn3C(C)C)n2)cc1-n1cnc(C2CC2)c1
- % of control [11]: 100%

SMILES: C=CC(=O)Nc1cc(-n2c(=O)ccc3cnc4ccc(-c5ccc(NS(C)(=O)=O)cc5)cc4c32)ccc1C
- % of control ([12]; at 1 µM): 100%
- % of control ([12]; at 10 µM): 99%

SMILES: CN(C)C/C=C/C(=O)Nc1ccc(C(=O)N2CCCC(Nc3ncc(Cl)c(-c4c[nH]c5ccccc45)n3)C2)cc1 (stereo not drawn)
- % of control [13]: 94%
